Measured values reported in US8642594B2, “Substituted thieno[2,3-d]pyrimidines as HSP90 inhibitors” (Vernalis (R&D) Limited, priority 2003, dated 2014).
Like-named read-outs stand apart in the source and are kept apart here.

Biological target: T1, Human full-length Hsp90 (Homo sapiens, UniProt P08238)
T1 construct: E. coli expressed human full-length HSP90 protein, purified >95%; made in house; host or cells: E. coli
Test: Fluorescence polarization assay (competitive binding to HSP90, probe RBT0045864-FAM)
In short: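 Competitive fluorescence polarization: test compound displaces FAM-labelled probe RBT0045864-FAM (200 nM working solution) from HSP90 after equilibration, and anisotropy change is measured. Compounds serially diluted; BSA-containing buffer; standard compound as positive control; Z′ from zero and positive controls.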

[1] = fluorescence polarization assay, activity range, read-out: Hsp90 FP IC50

T1 sequence (P08238 whole entry): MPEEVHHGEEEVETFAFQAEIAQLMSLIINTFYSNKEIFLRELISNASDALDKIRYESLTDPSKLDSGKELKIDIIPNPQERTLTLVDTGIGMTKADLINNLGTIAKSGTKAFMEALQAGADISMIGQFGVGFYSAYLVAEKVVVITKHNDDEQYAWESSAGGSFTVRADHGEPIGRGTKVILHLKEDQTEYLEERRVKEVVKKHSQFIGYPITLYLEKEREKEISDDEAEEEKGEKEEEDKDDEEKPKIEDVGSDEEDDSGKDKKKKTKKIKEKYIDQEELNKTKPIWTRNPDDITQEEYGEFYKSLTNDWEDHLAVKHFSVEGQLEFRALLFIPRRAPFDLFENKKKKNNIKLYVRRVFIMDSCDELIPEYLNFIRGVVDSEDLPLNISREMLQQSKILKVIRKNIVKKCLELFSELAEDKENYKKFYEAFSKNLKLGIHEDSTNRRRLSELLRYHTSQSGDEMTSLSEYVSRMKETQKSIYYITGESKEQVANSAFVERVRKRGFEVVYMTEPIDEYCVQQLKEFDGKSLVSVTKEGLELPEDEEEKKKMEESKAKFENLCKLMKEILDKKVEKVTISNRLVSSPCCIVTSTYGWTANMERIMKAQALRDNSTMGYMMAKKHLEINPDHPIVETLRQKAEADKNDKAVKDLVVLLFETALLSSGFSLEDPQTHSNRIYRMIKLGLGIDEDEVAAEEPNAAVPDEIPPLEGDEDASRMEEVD

Row | IC50 [1] [µM] | Structure (SMILES) | IC50 [µM]
1 | < 10 | CCNC(=O)c1cc2c(-c3cc(OCC4CCCO4)c(Cl)cc3Cl)nc(N)nc2s1 (stereo not drawn) [Example 262] | 
2 | > 10 | CCCCOc1ccc(-c2nc(N)nc3sc(C(=O)OCC)cc23)c(C)c1 [Example 186] | 
3 | < 10 | CCOC(=O)c1cc2c(-c3ccc(OCCCO)cc3C)nc(N)nc2s1 [Example 194] | 
4 | < 10 | CCNC(=O)c1cc2c(-c3cc(CNCCc4cnc[nH]4)ccc3C)nc(N)nc2s1 [Example 204] | 
5 | > 10 | Nc1nc(-c2ccccc2)c2cc(C(=O)NCCc3cccnc3)sc2n1 [Example 51] | 
6 | < 10 | CCNC(=O)c1cc2c(-c3cc(CNCC(C)C)ccc3C)nc(N)nc2s1 [Example 218] | 
7 | < 10 | CCNC(=O)c1cc2c(-c3cc(C)c(Br)cc3C)nc(N)nc2s1 [Example 149] | 
8 | < 10 | CCNC(=O)c1cc2c(-c3cc(OCC(=O)N4CCOCC4)c(Cl)cc3Cl)nc(N)nc2s1 [Example 271] | 
9 | < 10 | Cc1ccc(-c2nc(N)nc3sc(C(=O)NCCc4c[nH]cn4)cc23)c(C)c1 [Example 86] | 
10 | < 10 | Cc1ccc(-c2nc(N)nc3sc(C(=O)NC(C)C)cc23)c(C)c1 [Example 81] | 
11 | < 10 | CCNC(=O)c1cc2c(-c3cc(C)c(C)cc3C)nc(N)nc2s1 [Example 150] | 
12 | < 10 | C[C@H](NC(=O)c1cc2c(-c3ccc(Cl)cc3Cl)nc(N)nc2s1)c1ccccc1 [Example 139] | 
13 | < 10 | Cc1ccc(-c2nc(N)nc3sc(C(=O)NCCCO)cc23)c(C)c1 [Example 85] | 
14 | > 10 | Nc1nc(-c2ccccc2)c2cc(C(=O)NCCCN3CCOCC3)sc2n1 [Example 66] | 
15 | < 10 | Nc1nc(-c2ccc(Cl)cc2Cl)c2cc(C(=O)Nc3ccc(F)cc3)sc2n1 [Example 135] | 
16 | < 10 | Nc1nc(-c2ccc(Cl)cc2Cl)c2cc(C(=O)NCC3CCCO3)sc2n1 (stereo not drawn) [Example 132] | 
17 | < 10 | CCNC(=O)c1cc2c(-c3cc(OCCN4CCOCC4)c(Cl)cc3Cl)nc(N)nc2s1 [Example 236, 2-Amino-4-[2,4-dichloro-5-(2-morpholin-4-yl-ethoxy)-phenyl]-thieno[2,3-d]pyrimidine-6-carboxylic acid ethyl amide] | 
18 | > 10 | CCN(CC)CCCNC(=O)c1cc2c(-c3ccccc3)nc(N)nc2s1 [Example 58] | 
19 | < 10 | CCNC(=O)c1cc2c(-c3cc(CNCc4ccccn4)ccc3C)nc(N)nc2s1 [Example 216] | 
20 | < 10 | CCNC(=O)c1cc2c(-c3cc(CNCc4ccco4)ccc3C)nc(N)nc2s1 [Example 210] | 
21 | < 10 | CCOC(=O)c1cc2c(-c3cc(C=O)ccc3C)nc(N)nc2s1 [Example 196, 2-Amino-4-(5-formyl-2-methyl-phenyl)-thieno[2,3-d]pyrimidine-6-carboxylic acid ethyl ester] | 
22 | < 10 | Nc1nc(-c2ccc(Cl)cc2Cl)c2cc(C(=O)NCc3cccs3)sc2n1 [Example 124] | 
23 | > 10 | CCCCNC(=O)c1cc2c(-c3ccccc3)nc(N)nc2s1 [Example 48] | 

Row | IC50 [1] [µM] | Structure (SMILES) | IC50 [µM]
24 | < 10 | CCCNC(=O)c1ccc(C)c(-c2nc(N)nc3sc(C(=O)NC4CC4)cc23)c1 [Example 183] | 
25 | < 10 | Nc1nc(-c2ccc(Cl)cc2Cl)c2cc(C(=O)NCCCO)sc2n1 [Example 101] | 
26 | < 10 | Nc1nc(-c2ccc(Cl)cc2Cl)c2cc(C(=O)NCC(F)(F)F)sc2n1 [Example 134] | 
27 | < 10 | Nc1nc(-c2ccc(Cl)cc2Cl)c2cc(C(=O)NCCCN3CCCC3)sc2n1 [Example 145] | 
28 | < 10 | Cc1ccc(-c2nc(N)nc3sc(C(=O)NCCO)cc23)c(C)c1 [Example 82] | 
29 | < 10 | CC(C)NC(=O)c1cc2c(-c3cc(O)c(Cl)cc3Cl)nc(N)nc2s1 [Example 248] | 
30 | < 10 | Nc1nc(-c2ccc(Cl)cc2Cl)c2cc(C(=O)Nc3ccc(S(N)(=O)=O)cc3)sc2n1 [Example 108] | 
31 | < 10 | CCOC(=O)c1cc2c(-c3ccc(C#N)cc3C)nc(N)nc2s1 [Example 32] | 
32 | > 10 | CN(C)CCCNC(=O)c1cc2c(-c3ccccc3)nc(N)nc2s1 [Example 45] | 
33 | < 10 | CCNC(=O)c1ccc(C)c(-c2nc(N)nc3sc(C(=O)NCC)cc23)c1 [Example 180] | 
34 | < 10 | CCNCc1ccc(C)c(-c2nc(N)nc3sc(C(=O)NCC)cc23)c1 [Example 206] | 
35 | < 10 | Nc1nc(-c2ccc(Cl)cc2Cl)c2cc(C(=O)NC3CN4CCC3CC4)sc2n1 (stereo not drawn) [Example 158] | 
36 | > 10 | CCOC(=O)c1cc2c(-c3ccc(OCC(=O)O)cc3C)nc(N)nc2s1 [Example 193] | 
37 | < 10 | CC(C)NC(=O)c1cc2c(-c3ccc(Cl)cc3Cl)nc(N)nc2s1 [Example 133] | 
38 | > 10 | CCCNC(=O)c1ccc(C)c(-c2nc(N)nc3sc(C(=O)NCc4ccccc4)cc23)c1 [Example 182] | 
39 | < 10 | CCOC(=O)c1cc2c(-c3ccc(OCC)cc3Cl)nc(N)nc2s1 [Example 78] | 
40 | < 10 | NC(=O)CNC(=O)c1cc2c(-c3ccccc3)nc(N)nc2s1 [Example 71] | 
41 | < 10 | CCOC(=O)c1cc2c(-c3ccc(Cl)cc3C)nc(N)nc2s1 [Example 3] | 
42 | < 10 | CCNC(=O)c1cc2c(-c3ccc(Cl)cc3C)nc(N)nc2s1 [Example 151] | 
43 | < 10 | CCN(CC)CCOc1cc(-c2nc(N)nc3sc(C(=O)NCCO)cc23)c(Cl)cc1Cl [Example 258] | 
44 | < 10 | CCNC(=O)c1cc2c(-c3cc(CNCCc4cccs4)ccc3C)nc(N)nc2s1 [Example 214] | 
45 | < 10 | CCCCNCc1ccc(C)c(-c2nc(N)nc3sc(C(=O)NCC)cc23)c1 [Example 213] | 
46 | < 10 | CCOC(=O)c1cc2c(-c3ccc(Cl)cc3)nc(N)nc2s1 [Example 169] | 

The remaining lines, values behind:

Row | Structure (SMILES) | IC50 [1] [µM] | IC50 [µM]
47 | CCNC(=O)c1cc2c(-c3ccc(Cl)cc3Cl)nc(N)nc2s1 [Example 98] |  | < 10
48 | CCOC(=O)c1cc2c(/C=C/c3ccc(C(F)(F)F)cc3)nc(N)nc2s1 [Example 288] | < 10 | 
49 | CCOC(=O)c1cc2c(C(=O)c3ccc4c(c3)OCCO4)nc(N)nc2s1 [Example 312] | < 10 | 
50 | CCOC(=O)c1cc2c(-c3ccc(CO)cc3)nc(N)nc2s1 [Example 35] | < 10 | 
51 | CCOC(=O)c1cc2c(C(=O)c3cccc(F)c3)nc(N)nc2s1 [Example 303] | < 10 | 
52 | Cc1ccc(-c2nc(N)nc3sc(C(=O)Nc4ccccc4)cc23)c(C)c1 [Example 91] | < 10 | 
53 | COC(=O)c1cc2c(NCc3ccccc3)nc(N)nc2s1 [Example 22, 2-Amino-4-benzylamino-thieno[2,3-d]pyrimidine-6-carboxylic acid methyl ester] | > 10 | 
54 | CCOC(=O)c1cc2c(C(C#N)c3ccc4c(c3)OCO4)nc(N)nc2s1 (stereo not drawn) [Example 316, 2-Amino-4-(benzo[1,3]dioxol-5-yl-cyano-methyl)-thieno[2,3-d]pyrimidine-6-carboxylic acid ethyl ester] | < 10 | 
55 | CCOC(=O)c1cc2c(-c3ccccc3)nc(N)nc2s1 [Example 1, 2-Amino-4-phenyl-thieno[2,3-d]pyrimidine-6-carboxylic acid ethyl ester] | < 10 | 
56 | CCOC(=O)c1cc2c(-c3ccc(OC)cc3)nc(N)nc2s1 [Example 12] | > 10 | 
57 | CCOC(=O)c1cc2c(/C=C/c3cccc(OC)c3)nc(N)nc2s1 [Example 279] | < 10 | 
58 | CCOC(=O)c1cc2c(C=Cc3ccccc3)nc(N)nc2s1 [275 Step 1] | < 10 | 
59 | Nc1nc(-c2ccccc2)c2cc(C(=O)Nc3ccccc3)sc2n1 [Example 60] | > 10 | 
60 | CCOC(=O)c1cc2c(-c3ccc(F)cc3)nc(N)nc2s1 [Example 10] | > 10 | 
61 | CCOC(=O)c1cc2c(-c3ccccc3C)nc(N)nc2s1 [Example 15] | < 10 | 
62 | CCOC(=O)c1cc2c(/C=C/c3ccccc3)nc(N)nc2s1 [Example 278] | < 10 | 
63 | C=C(c1ccc(F)cc1)c1nc(N)nc2sc(C(=O)OCC)cc12 [Example 277] | < 10 | 
64 | CCC(C)NC(=O)c1cc2c(-c3ccccc3)nc(N)nc2s1 (stereo not drawn) [Example 59] | > 10 | 

Row | Structure (SMILES) | IC50 [1] [µM] | IC50 [µM]
65 | CCOC(=O)c1cc2c(C(=O)c3ccc4c(c3)OCO4)nc(N)nc2s1 [Example 298] | < 10 | 
66 | CCOC(=O)c1cc2c(NC(C)(C)c3ccccc3)nc(N)nc2s1 [Example 29] | > 10 | 
67 | Cc1ccc(-c2nc(N)nc3sc(S(=O)(=O)NC4CC4)cc23)c(C)c1 [Example 274, 2-Amino-4-(2,4-dimethyl-phenyl)-thieno[2,3-d]pyrimidine-6-sulfonic acid cyclopropylamide] | < 10 | 
68 | CCOC(=O)c1cc2c(-c3c(Cl)cccc3OC)nc(N)nc2s1 [Example 147] | > 10 | 
69 | CNC(=O)c1cc2c(NCc3ccccc3)nc(N)nc2s1 [Example 65] | > 10 | 
70 | CCNC(=O)c1cc2c(-c3ccc(Cl)cc3)nc(N)nc2s1 [Example 173] |  | < 10
71 | CCOC(=O)c1cc2c(-c3csc4ccccc34)nc(N)nc2s1 [Example 290] | > 10 | 
72 | CCOC(=O)c1cc2c(/C=C/c3ccc(Cl)cc3)nc(N)nc2s1 [Example 281] | < 10 | 
73 | CCNC(=O)c1cc2c(-c3cc(OCCN4CCN(C)CC4)c(Cl)cc3Cl)nc(N)nc2s1 [Example 246] |  | < 10
74 | CCOC(=O)c1cc2c(-c3cccc(C#N)c3)nc(N)nc2s1 [Example 17] | > 10 | 
75 | CCOC(=O)c1cc2c(-c3ccc(OCC(=O)OC(C)(C)C)cc3C)nc(N)nc2s1 [Example 192] | > 10 | 
76 | CCNC(=O)c1cc2c(-c3cc(OCC(N)=O)c(Cl)cc3Cl)nc(N)nc2s1 [Example 267] |  | < 10
77 | CCNC(=O)c1cc2c(-c3cc(OCC#N)c(Cl)cc3Cl)nc(N)nc2s1 [Example 270] |  | < 10
78 | CN(c1ccccc1)c1nc(N)nc2sc(C(N)=O)cc12 [Example 63] | > 10 | 
79 | Nc1nc(-c2ccccc2)c2cc(C(=O)NCCN3CCOCC3)sc2n1 [Example 46] | > 10 | 
80 | CCOC(=O)c1cc2c(NCCCN3CCCC3=O)nc(N)nc2s1 [Example 31] | > 10 | 
81 | CCNC(=O)c1cc2c(-c3ccc(C)cc3C)nc(N)nc2s1 [Example 80] |  | < 10
